Among the test systems are HCT-15 colon; HL-60(TB) leukemia; HT29 colon; K-562 leukemia; MALME-3M melanoma; SF-295 CNS; SK-MEL-28 melanoma; SK-MEL-5 melanoma; SW-620 colon; UACC-62 melanoma.
Assay in all cases: NCI anticancer screen, dose series, 48 h

Molecules are shown by their SMILES. Values joined by “and” are separate entries in the source; they are usually repeats but may differ in a detail not shown here. Equal values may be shown once.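 All cell lines were grown in 96-well plates and treated with compound for 48 hours. GI50 is the concentration that inhibits growth by half. Definition used: TGI = concentration required for complete inhibition of growth.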 Where only a bound is given, the exact number is not on record here.

With `C=C(CN1CCN(c2ccc(Cl)cc2F)CC1)c1ccc(C(=O)Nc2ccccc2N)cc1`, the GI50 in the experiment on HCT-15 colon is 2.16 µM; in the experiment with HL-60(TB) leukemia, 0.794 µM; in the experiment with HT29 colon it was 2.96 µM; in the experiment with K-562 leukemia, 1.12 µM; in the experiment with MALME-3M melanoma it was 1.92 µM; in the experiment with SF-295 CNS it was 3.16 µM. Besides, the GI50 is over 26.8 µM with SK-MEL-28 melanoma, 2.3 µM in the experiment with SK-MEL-5 melanoma, 3.06 µM in the experiment on SW-620 colon and 2.42 µM with UACC-62 melanoma. Further, the TGI in the experiment with HCT-15 colon, with HT29 colon, in the experiment on K-562 leukemia, in the experiment on MALME-3M melanoma, in the experiment on SF-295 CNS and in the experiment on SK-MEL-28 melanoma was over 100 µM in each case. For the same molecule, the TGI with SK-MEL-5 melanoma was over 22.4 µM; in the experiment with SW-620 colon, over 100 µM; in the experiment with UACC-62 melanoma, over 92.1 µM.
`CCCCC(=O)OCC(=O)[C@]1(O)Cc2c(O)c3c(c(O)c2[C@@H](OC2CC(NC(=O)C(F)(F)F)C(O)C(C)O2)C1)C(=O)c1c(OC)cccc1C3=O` (some centres undefined): the TGI was 6.9 µM in the experiment with HCT-15 colon; 6.41 µM in the experiment with HL-60(TB) leukemia; over 100 µM in the experiment on HT29 colon; over 21.9 µM with K-562 leukemia; 2.76 µM in the experiment with MALME-3M melanoma; 2.19 µM with SF-295 CNS. Besides, the TGI in the experiment on SK-MEL-28 melanoma is 12.2 µM; in the experiment with SK-MEL-5 melanoma, 1.64 µM; in the experiment on SW-620 colon, over 52.4 µM; in the experiment on UACC-62 melanoma it was 1.04 µM.
Turning to `C/C(CC(=O)CCC(=O)Nc1cccc(C(F)(F)F)c1)=N\NC(=O)NN`, the TGI in the experiment on HCT-15 colon, with HL-60(TB) leukemia, with HT29 colon, with K-562 leukemia, in the experiment on MALME-3M melanoma and in the experiment with SF-295 CNS was over 100 µM in each case. Besides, the TGI with SK-MEL-28 melanoma, in the experiment on SK-MEL-5 melanoma, with SW-620 colon and in the experiment on UACC-62 melanoma was over 100 µM throughout.
`COC(=O)[C@@H]1[C@H](O)[C@H](C)[C@H](O)[C@@](C)(O)/C=C\C=C(C)C(=O)Nc2c(C)c(OC(C)=O)c3c(c2O)C(=O)C(C)=C2OCOC(=C23)C(C)=C[C@@](C)(O)[C@H](O)[C@@H](C)[C@H]1OC(C)=O`: the GI50 in the experiment on HCT-15 colon was 42.5 µM; in the experiment with HL-60(TB) leukemia, 11.5 µM; in the experiment with K-562 leukemia it was 32.4 µM; with SF-295 CNS, over 66.9 µM; in the experiment with SK-MEL-5 melanoma it was 20.5 µM; in the experiment on UACC-62 melanoma, 25.1 µM. In addition, the TGI in the experiment on HCT-15 colon is > 100 µM and 66.9 µM; in the experiment on HL-60(TB) leukemia, > 100 µM and 64.6 µM and 39.9 µM; in the experiment on HT29 colon, > 100 µM and 66.9 µM; in the experiment on K-562 leukemia it was > 100 µM and 66.9 µM; in the experiment on MALME-3M melanoma it was > 100 µM and 66.9 µM and 88.6 µM; in the experiment with SF-295 CNS it was over 100 µM. In addition, the TGI in the experiment with SK-MEL-28 melanoma is over 100 µM; with SK-MEL-5 melanoma, > 100 µM and 66.9 µM and 38.4 µM; in the experiment on SW-620 colon, > 100 µM and 21 µM; in the experiment on UACC-62 melanoma, > 100 µM and 66.9 µM and 54.5 µM.
Turning to `Cc1nc2ccccc2c(N)c1-c1cc(C)c2c(C)nc3ccccc3c2n1`, the GI50 in the experiment on HCT-15 colon is 0.216 µM; in the experiment on HL-60(TB) leukemia, 0.454 µM; in the experiment on HT29 colon, 0.749 µM; in the experiment on K-562 leukemia, 0.256 µM; with MALME-3M melanoma it was 1.27 µM; in the experiment on SF-295 CNS, 1.34 µM. Also, the GI50 is 1.61 µM with SK-MEL-28 melanoma, 18.2 µM in the experiment with SK-MEL-5 melanoma, 0.183 µM with SW-620 colon and 1.29 µM with UACC-62 melanoma. In addition, the TGI in the experiment with HCT-15 colon was 0.562 µM; in the experiment on HT29 colon it was 2.52 µM; in the experiment on K-562 leukemia, over 100 µM; in the experiment with MALME-3M melanoma, 2.59 µM; in the experiment with SF-295 CNS it was 2.74 µM; with SK-MEL-28 melanoma, 2.97 µM. Also, the TGI in the experiment with SK-MEL-5 melanoma was over 37.4 µM; in the experiment with SW-620 colon, 0.435 µM; with UACC-62 melanoma it was 2.61 µM.
`N#CCCN(CCC#N)c1ccc(/C=C2\N=C(c3cc([N+](=O)[O-])ccc3Cl)OC2=O)cc1`: the TGI with HCT-15 colon is over 100 µM; with HL-60(TB) leukemia it was 67.3 µM; in the experiment with HT29 colon, over 100 µM; in the experiment on K-562 leukemia, 40.7 µM; in the experiment on MALME-3M melanoma it was over 100 µM; with SF-295 CNS, over 100 µM. Further, the TGI in the experiment on SK-MEL-28 melanoma was over 100 µM; with SK-MEL-5 melanoma, 33.4 µM; in the experiment with SW-620 colon, over 100 µM; in the experiment with UACC-62 melanoma it was over 100 µM.
With `O=C(/C=C/c1ccccc1)NC1C=Nc2ccc(Cl)cc2NC1=O` (centres undefined), the TGI in the experiment on HCT-15 colon is 61 µM; with HL-60(TB) leukemia it was 30.3 µM; with HT29 colon it was over 100 µM; with K-562 leukemia, 59 µM; with MALME-3M melanoma, 85.1 µM; with SF-295 CNS it was over 100 µM. Further, the TGI with SK-MEL-28 melanoma was over 100 µM; in the experiment with SK-MEL-5 melanoma, 51.6 µM; with SW-620 colon, 24.2 µM; in the experiment on UACC-62 melanoma it was over 100 µM.
`COc1ccccc1C12OC(=O)C1(C)Oc1ccccc1C2=O` (centres undefined): the TGI in the experiment on HCT-15 colon, with HL-60(TB) leukemia, in the experiment with HT29 colon, with K-562 leukemia, with MALME-3M melanoma and in the experiment on SF-295 CNS was over 100 µM in each case. For the same molecule, the TGI in the experiment on SK-MEL-28 melanoma, in the experiment with SK-MEL-5 melanoma, in the experiment with SW-620 colon and with UACC-62 melanoma was over 100 µM each time.
For `NC(Cc1c[nH]c2c(O)cccc12)C(=O)O` (centres undefined), the GI50 in the experiment on HCT-15 colon, in the experiment with HL-60(TB) leukemia, with HT29 colon, with K-562 leukemia, in the experiment on MALME-3M melanoma and with SF-295 CNS was over 100 µM in each case. The GI50 was over 100 µM in the experiment on SK-MEL-28 melanoma, 49.6 µM in the experiment on SK-MEL-5 melanoma, over 100 µM in the experiment on SW-620 colon and over 100 µM in the experiment on UACC-62 melanoma. Besides, the TGI in the experiment with HCT-15 colon, in the experiment on HL-60(TB) leukemia, in the experiment on HT29 colon, in the experiment with K-562 leukemia, in the experiment on MALME-3M melanoma and in the experiment on SF-295 CNS was over 100 µM throughout. The TGI in the experiment with SK-MEL-28 melanoma, in the experiment on SK-MEL-5 melanoma, in the experiment with SW-620 colon and in the experiment on UACC-62 melanoma was over 100 µM each time.
With `O=C1C=C(Cl)C(=O)C(c2ccc(Cl)cc2)=C1`, the TGI in the experiment on HCT-15 colon is 47.5 µM; in the experiment on HL-60(TB) leukemia, 42.8 µM; in the experiment on HT29 colon, 62.8 µM; with K-562 leukemia it was 23.8 µM; with MALME-3M melanoma, 39 µM; in the experiment with SF-295 CNS, over 100 µM. Further, the TGI in the experiment with SK-MEL-28 melanoma was 43.4 µM; with SK-MEL-5 melanoma, 34.3 µM; in the experiment on SW-620 colon, 89.5 µM; in the experiment with UACC-62 melanoma, 42.4 µM.

The values are drawn from PubChem BioAssay (NCI).
